For 13 molecules, IC50 results are on record in US20210009564A1, “CALPAIN MODULATORS AND THERAPEUTIC USES THEREOF” (BLADE THERAPERTICS, INC., priority 2018, published 2021).

Assay [1] concerns Calpain activity in SH-SY5Y cells. The experiment in a line: SH-SY5Y spectrin breakdown product (SBDP-150) western blot assay. It counts as cell-based. Conditions: Homo sapiens, read-out: SH-SY5Y Spectrin IC50.
Assay [2] deals with T1, Human Calpain 2/NS1 (Homo sapiens, UniProt P17655).
T1 sequence (P17655 1-700): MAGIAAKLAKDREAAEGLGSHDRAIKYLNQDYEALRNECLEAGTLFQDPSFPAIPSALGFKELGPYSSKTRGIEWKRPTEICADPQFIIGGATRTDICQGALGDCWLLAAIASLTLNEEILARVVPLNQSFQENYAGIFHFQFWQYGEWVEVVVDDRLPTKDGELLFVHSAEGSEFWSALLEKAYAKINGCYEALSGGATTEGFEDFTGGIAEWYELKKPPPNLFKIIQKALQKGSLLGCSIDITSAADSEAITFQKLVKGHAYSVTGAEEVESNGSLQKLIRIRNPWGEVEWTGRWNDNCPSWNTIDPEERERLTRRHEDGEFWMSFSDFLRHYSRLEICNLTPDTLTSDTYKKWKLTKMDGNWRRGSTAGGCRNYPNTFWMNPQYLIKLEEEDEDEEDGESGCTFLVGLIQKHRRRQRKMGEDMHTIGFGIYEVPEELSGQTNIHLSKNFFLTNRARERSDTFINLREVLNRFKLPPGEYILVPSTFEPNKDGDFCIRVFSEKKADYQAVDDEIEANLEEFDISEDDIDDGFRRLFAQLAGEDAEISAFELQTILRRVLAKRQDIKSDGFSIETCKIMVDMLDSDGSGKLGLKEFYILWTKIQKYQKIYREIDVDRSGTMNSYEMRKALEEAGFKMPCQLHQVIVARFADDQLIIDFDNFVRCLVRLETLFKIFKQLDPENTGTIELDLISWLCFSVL
T1 sequence (P04632 1-268 partner): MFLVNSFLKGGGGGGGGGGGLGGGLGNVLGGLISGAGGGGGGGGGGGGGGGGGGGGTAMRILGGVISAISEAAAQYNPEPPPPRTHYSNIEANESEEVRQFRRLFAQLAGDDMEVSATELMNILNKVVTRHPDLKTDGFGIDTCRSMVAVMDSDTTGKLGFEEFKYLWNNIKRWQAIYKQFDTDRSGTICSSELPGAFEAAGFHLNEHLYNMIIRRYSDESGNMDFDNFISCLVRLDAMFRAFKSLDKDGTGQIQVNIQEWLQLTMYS
The experiment in a line: Calpain inhibition, continuous fluorescence (FRET substrate) assay, calpain 2. It counts as biochemical. The settings on record: SensoLyte 520 FRET substrate, 25C. In outline: (§1)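 Calpains preincubated with serially diluted inhibitors at 25 °C in 50 mM Tris pH 7.5, 100 mM NaCl, 1 mM DTT; CaCl2 plus 5-FAM/QXL 520 FRET substrate started the reaction. Fluorescence (490/520 nm) read 10 min; rates from 1-5 min slopes, IC50 from 4-parameter logistic fit.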

Assay [3] has as its target T2, Human Calpain 9/NS1 (Homo sapiens, UniProt O14815).
T2 sequence (O14815 1-690): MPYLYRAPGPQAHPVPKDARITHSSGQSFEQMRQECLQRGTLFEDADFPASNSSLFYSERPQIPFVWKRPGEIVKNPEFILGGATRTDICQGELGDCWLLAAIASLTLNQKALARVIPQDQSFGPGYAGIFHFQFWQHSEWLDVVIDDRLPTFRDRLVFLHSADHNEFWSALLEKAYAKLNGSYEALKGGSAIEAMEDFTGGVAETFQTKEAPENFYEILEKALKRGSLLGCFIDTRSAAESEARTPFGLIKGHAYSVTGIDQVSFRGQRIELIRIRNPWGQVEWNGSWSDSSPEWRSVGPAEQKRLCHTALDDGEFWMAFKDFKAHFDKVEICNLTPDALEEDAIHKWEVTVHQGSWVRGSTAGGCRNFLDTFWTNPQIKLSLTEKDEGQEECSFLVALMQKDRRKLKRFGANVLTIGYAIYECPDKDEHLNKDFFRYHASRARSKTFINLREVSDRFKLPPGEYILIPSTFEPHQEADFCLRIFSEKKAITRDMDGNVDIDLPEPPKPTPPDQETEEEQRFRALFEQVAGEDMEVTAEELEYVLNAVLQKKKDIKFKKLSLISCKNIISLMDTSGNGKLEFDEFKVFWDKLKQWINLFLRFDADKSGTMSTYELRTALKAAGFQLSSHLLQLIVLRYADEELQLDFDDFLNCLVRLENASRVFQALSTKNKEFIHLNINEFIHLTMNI
T2 sequence (P04632 1-268 partner): T1 sequence (P04632 1-268 partner)
Description: Calpain inhibition, continuous fluorescence (FRET substrate) assay, calpain 9. It is filed as biochemical. Conditions: SensoLyte 520 FRET substrate, 25C. In short, it runs like this:
as §1

Assay [4] has as its target T3, Human Calpain 1/NS1 (Homo sapiens, UniProt P07384).
T3 sequence (P07384 1-714): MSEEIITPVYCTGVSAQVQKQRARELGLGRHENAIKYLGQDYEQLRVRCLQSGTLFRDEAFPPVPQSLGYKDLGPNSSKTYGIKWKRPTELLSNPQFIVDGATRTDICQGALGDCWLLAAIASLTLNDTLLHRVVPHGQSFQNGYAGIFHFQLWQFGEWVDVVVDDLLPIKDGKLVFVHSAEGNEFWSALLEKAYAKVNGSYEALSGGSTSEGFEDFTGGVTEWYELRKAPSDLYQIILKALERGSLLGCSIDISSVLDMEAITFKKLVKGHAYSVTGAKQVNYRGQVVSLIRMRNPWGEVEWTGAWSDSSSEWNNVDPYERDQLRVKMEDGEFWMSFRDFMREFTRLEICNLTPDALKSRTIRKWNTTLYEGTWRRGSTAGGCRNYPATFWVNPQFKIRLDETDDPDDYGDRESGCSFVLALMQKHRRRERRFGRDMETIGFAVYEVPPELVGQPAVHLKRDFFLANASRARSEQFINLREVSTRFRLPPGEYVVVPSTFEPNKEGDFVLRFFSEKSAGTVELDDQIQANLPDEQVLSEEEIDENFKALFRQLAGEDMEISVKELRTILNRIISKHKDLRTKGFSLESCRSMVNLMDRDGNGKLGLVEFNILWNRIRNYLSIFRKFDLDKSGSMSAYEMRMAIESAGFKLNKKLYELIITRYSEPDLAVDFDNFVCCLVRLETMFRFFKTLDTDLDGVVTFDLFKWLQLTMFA
T3 sequence (P04632 1-268 partner): T1 sequence (P04632 1-268 partner)
Description: Calpain inhibition, continuous fluorescence (FRET substrate) assay, calpain 1. It is filed as biochemical. The settings on record: SensoLyte 520 FRET substrate, 25C. In outline: as §1

The subject of assay [5] is Calpain activity in SH-SY5Y cells. Description: SH-SY5Y Suc-LLVY-AMC fluorescence assay. It is filed as cell-based. The settings on record: Homo sapiens, read-out: SH-SY5Y + AMC IC50.
Setting [6] is: SH-SY5Y cells, 25 uM A23187, SBDP-150 western blot.
Where [7] appears, read: SH-SY5Y cells, 100 uM Suc-LLVY-AMC.

The IC50 is the concentration that inhibits the measured activity by half.

Turning to `NC(=O)C(=O)C(Cc1ccccc1)NC(=O)c1cn(C(F)F)nc1-c1cc(Cl)oc1Cl` (centres unmarked) [Compound 36, N-(4-AMINO-3,4-DIOXO-1-PHENYLBUTAN-2-YL)-3-(2,5-DICHLOROFURAN-3-YL)-1-(DIFLUOROMETHYL)-1H-PYRAZOLE-4-CARBOXAMIDE], the concentration for half-maximal inhibition (IC50) in assay [1] (setting [6]) is below 10 µM; in assay [2] it was below 3 µM; in assay [3], below 3 µM; in assay [4], below 3 µM; in assay [5] (setting [7]), below 10 µM.

For `COc1cc2nccc(-c3nn(C)cc3C(=O)NC(Cc3ccccc3)C(=O)C(N)=O)c2cc1OC` (centres unmarked) [Compound 37, N-(4-AMINO-3,4-DIOXO-1-PHENYLBUTAN-2-YL)-3-(6,7-DIMETHOXYQUINOLIN-4-YL)-1-METHYL-1H-PYRAZOLE-4-CARBOXAMIDE], the 50% inhibitory concentration (IC50) in assay [1] (setting [6]) was above 25 µM; in assay [2], below 3 µM; in assay [3], below 3 µM; in assay [4] it was below 3 µM; in assay [5] (setting [7]), above 25 µM.

`COC(=O)C(=O)C(Cc1ccccc1)NC(=O)c1nsnc1-c1ccccc1` (centres unmarked) [Compound 38, METHYL 2-OXO-4-PHENYL-3-(4-PHENYL-1,2,5-THIADIAZOLE-3-CARBOXAMIDO)BUTANOATE]: the concentration for half-maximal inhibition (IC50) in assay [1] (setting [6]) was below 10 µM; in assay [2], below 3 µM; in assay [3], below 3 µM; in assay [4], below 3 µM; in assay [5] (setting [7]) it was below 10 µM.

Turning to `Cn1cc(C(=O)NC(Cc2ccccc2)C(=O)C(N)=O)c(-c2cccc3cn[nH]c23)n1` (centres unmarked) [Compound 39, N-(4-AMINO-3,4-DIOXO-1-PHENYLBUTAN-2-YL)-3-(1H-INDAZOL-7-YL)-1-METHYL-1H-PYRAZOLE-4-CARBOXAMIDE], the IC50 in assay [1] (setting [6]) is below 10 µM; in assay [2], below 3 µM; in assay [3], below 3 µM; in assay [4], below 3 µM; in assay [5] (setting [7]), 10 to 25 µM.

For the molecule `COC(=O)C(=O)C(Cc1ccccc1)NC(=O)c1cn(C)nc1-c1ccccc1F` (centres unmarked) [Compound 40, METHYL 3-(3-(2-FLUOROPHENYL)-1-METHYL-1H-PYRAZOLE-4-CARBOXAMIDO)-2-OXO-4-PHENYLBUTANOATE], the half-inhibitory concentration (IC50) in assay [1] (setting [6]) is above 25 µM; in assay [2] it was below 3 µM; in assay [3], below 3 µM; in assay [4], below 3 µM; in assay [5] (setting [7]) it was below 10 µM.

On to `COC(=O)C(=O)C(Cc1ccccc1)NC(=O)c1cn(C2CC2)nc1-c1ccccc1` (centres unmarked) [Compound 41, METHYL 3-(1-CYCLOPROPYL-3-PHENYL-1H-PYRAZOLE-4-CARBOXAMIDO)-2-OXO-4-PHENYLBUTANOATE], for which the 50% inhibitory concentration (IC50) in assay [1] (setting [6]) was above 25 µM; in assay [2], below 3 µM; in assay [3], below 3 µM; in assay [4] it was below 3 µM; in assay [5] (setting [7]), below 10 µM.

Consider `COC(=O)C(=O)C(Cc1ccccc1)NC(=O)c1oc(C)nc1-c1ccccc1F` (centres unmarked) [Compound 42, METHYL 3-(4-(2-FLUOROPHENYL)-2-METHYLOXAZOLE-5-CARBOXAMIDO)-2-OXO-4-PHENYLBUTANOATE], for which the IC50 was below 10 µM in assay [1] (setting [6]); below 3 µM in assay [2]; below 3 µM in assay [3]; below 3 µM in assay [4]; below 10 µM in assay [5] (setting [7]).

As for `Cc1cc(C(=O)NC(Cc2ccccc2)C(=O)C(N)=O)n(-c2nccc(-c3ccccc3)n2)n1` (centres unmarked) [Compound 45, N-(4-AMINO-3,4-DIOXO-1-PHENYLBUTAN-2-YL)-3-METHYL-1-(4-PHENYLPYRIMIDIN-2-YL)-1H-PYRAZOLE-5-CARBOXAMIDE], the IC50 was 10 to 25 µM in assay [1] (SH-SY5Y); below 3 µM in assay [2]; below 3 µM in assay [3]; below 3 µM in assay [4]; below 10 µM in assay [5] (SH-SY5Y).

`Cc1occc1-c1nsnc1C(=O)NC(Cc1ccccc1)C(=O)C(N)=O` (centres unmarked) [Compound 46, N-(4-AMINO-3,4-DIOXO-1-PHENYLBUTAN-2-YL)-4-(2-METHYLFURAN-3-YL)-1,2,5-THIADIAZOLE-3-CARBOXAMIDE]: the IC50 in assay [1] (setting [6]) is below 10 µM; in assay [2] it was below 3 µM; in assay [3], below 3 µM; in assay [4] it was below 3 µM; in assay [5] (setting [7]) it was below 10 µM.

Consider `Cn1cc(C(=O)NC(Cc2ccccc2)C(=O)C(N)=O)c(-n2cnc3ccc(F)cc32)n1` (centres unmarked) [Compound 47, N-(4-AMINO-3,4-DIOXO-1-PHENYLBUTAN-2-YL)-3-(6-FLUORO-1H-BENZO[D]IMIDAZOL-1-YL)-1-METHYL-1H-PYRAZOLE-4-CARBOXAMIDE], for which the half-inhibitory concentration (IC50) in assay [1] (setting [6]) is 10 to 25 µM; in assay [2], below 3 µM; in assay [3], below 3 µM; in assay [4], below 3 µM; in assay [5] (setting [7]), above 25 µM.

Turning to `Cn1cc(C(=O)NC(Cc2ccccc2)C(=O)C(N)=O)c(-n2cnc3cc(F)ccc32)n1` (centres unmarked) [Compound 48, N-(4-AMINO-3,4-DIOXO-1-PHENYLBUTAN-2-YL)-3-(5-FLUORO-1H-BENZO[D]IMIDAZOL-1-YL)-1-METHYL-1H-PYRAZOLE-4-CARBOXAMIDE], the IC50 in assay [1] (setting [6]) was below 10 µM; in assay [2] it was below 3 µM; in assay [3], below 3 µM; in assay [4] it was below 3 µM; in assay [5] (setting [7]), 10 to 25 µM.

Turning to `Cn1cc(C(=O)NC(Cc2ccccc2)C(=O)C(N)=O)c(-c2ncnc3ccccc23)n1` (centres unmarked) [Compound 49, N-(4-AMINO-3,4-DIOXO-1-PHENYLBUTAN-2-YL)-1-METHYL-3-(QUINAZOLIN-4-YL)-1H-PYRAZOLE-4-CARBOXAMIDE], the IC50 in assay [1] (setting [6]) is above 25 µM; in assay [2], below 3 µM; in assay [3] it was below 3 µM; in assay [4], below 3 µM; in assay [5] (setting [7]), 10 to 25 µM.

Turning to `NC(=O)C(=O)C(Cc1ccccc1)NC(=O)c1cn(C(F)F)nc1-c1cccc2oc(=O)[nH]c12` (centres unmarked) [Compound 50, N-(4-AMINO-3,4-DIOXO-1-PHENYLBUTAN-2-YL)-1-(DIFLUOROMETHYL)-3-(2-OXO-2,3-DIHYDROBENZO[D]OXAZOL-4-YL)-1H-PYRAZOLE-4-CARBOXAMIDE], the IC50 is 10 to 25 µM in assay [1] (setting [6]); below 3 µM in assay [2]; below 3 µM in assay [3]; below 3 µM in assay [4]; 10 to 25 µM in assay [5] (setting [7]).
